These results are taken from patent US11253589B2, “Modulation of the immune response” (priority 2007, dated 2022).

For series [1], the system named is CD4+Foxp3:GFP+ Treg. Kind of series: Treg suppressive activity assay. It is filed as cell-based, mouse. Particulars: resveratrol treated cells. How it is done:
Cells were cultured in serum-free X-VIVO 20™ media (BioWhittaker, Walkersville, Md., USA) for 72 hours. During the last 16 hours, cells were pulsed with 1 μCi of [^3H]thymidine (PerkinElmer, Waltham, Mass., USA) followed by harvesting on glass fiber filters and analysis of incorporated [^3H]thymidine in a beta-counter (1450 Microbeta, Trilux, PerkinElmer). Alternatively, culture supernatants were collected […] activation and the cytokine concentration was determined by ELISA using antibodies for IFN-γ, IL-17, IL-4, IL-10 from BD Biosciences and antibodies to TGF-β from R&D Systems. For suppression assays, MACS purified CD4^+CD25^− T cells from naïve C57BL/6 mice (1-5×10^4 cells/well) were stimulated with antibodies to CD3 and C57BL/6 irradiated spleen cells (0.3-1.5×10^4 cells/well) for 3 days in the presence of different ratios of CD4^+ GFP^+ retrovirus-transduced T cells.
To investigate the active suppression of MOG35-55-specific Teff by Treg, Foxp3^gpf knock in mice were immunized with MOG35-55/CFA, treated daily with intreaperitoneal ITE ([…]) and the recall response to MOG35-55 and a mitogenic antibody to CD3 antibody was studied on FACS-sorted CD4^+ T cells and CD4^+ FoxP3:GFP− Teff. […] This suppressed response to MOG35-55 was lost upon removal of the CD4^+FoxP3:GFP^+ Treg (FIG. 26). To further analyze the MOG35-55-specific suppressive activity of the CD4^+FoxP3:GFP^+ Treg, they were cocultured at different ratios and assayed for the suppression of MOG35-55 or anti-CD3-triggered proliferation of CD4^+FoxP3:GFP− Teff form 2D2 mice, which harbor a TCR specific for MOG35-55.

Series [2] has as its system CD4+Foxp3:GFP- T cells. Kind of series: In vitro conversion of CD4+Foxp3:GFP- T cells into Treg. The format is cell-based, mouse. Particulars: resveratrol 50 μM. How it is done:
CD4+ T cells were purified from Foxp3gfp knock in mice using anti-CD4 beads (Miltenyi, Auburn, Calif., USA) and sorted (FACSAria™ cell sorter, BD Biosciences) into naive CD4^+ Foxp3:GFP^− or CD4^+ Foxp3:GFP T cells. CD4^+ Foxp3:GFP^− T cells were stimulated with plate bound 1 μg/ml of anti-CD3 (145-2C11, eBioscience) and 2 μg/ml of anti-CD28 (37.51, eBioscience) for 5 days, supplemented with recombinant IL-2 (50 U/ml) at day 2 and 4, and analyzed by FACS at day 5 for their differentiation into […]. TGFβ1 (2.5 ng/ml) was used as a positive control.
To establish if TCDD triggered the conversion of CD4^+Foxp3^− T cells into new Foxp3^+ Treg cells, FACS sorted CD4^+Foxp3:GFP− T cells were activated in vitro with antibodies to CD3 and CD28 in the presence of TCDD, and the generation of CD4^+Foxp3:GFP^+ Treg was followed by FACS. TGFb1 was used as a positive control.

The subject of series [3] is C57BL/6 mice. As to the kind of experiment: EAE induced by immunization with MOG35-55 in CFA. The format is in vivo, mouse.
For series [4] the following is noted: compared with toxic effects reported for TCDD; cited from earlier work.
Series [5] has as its target T1, AHR (Homo sapiens, UniProt P35869).
T1 sequence (P35869 11-848): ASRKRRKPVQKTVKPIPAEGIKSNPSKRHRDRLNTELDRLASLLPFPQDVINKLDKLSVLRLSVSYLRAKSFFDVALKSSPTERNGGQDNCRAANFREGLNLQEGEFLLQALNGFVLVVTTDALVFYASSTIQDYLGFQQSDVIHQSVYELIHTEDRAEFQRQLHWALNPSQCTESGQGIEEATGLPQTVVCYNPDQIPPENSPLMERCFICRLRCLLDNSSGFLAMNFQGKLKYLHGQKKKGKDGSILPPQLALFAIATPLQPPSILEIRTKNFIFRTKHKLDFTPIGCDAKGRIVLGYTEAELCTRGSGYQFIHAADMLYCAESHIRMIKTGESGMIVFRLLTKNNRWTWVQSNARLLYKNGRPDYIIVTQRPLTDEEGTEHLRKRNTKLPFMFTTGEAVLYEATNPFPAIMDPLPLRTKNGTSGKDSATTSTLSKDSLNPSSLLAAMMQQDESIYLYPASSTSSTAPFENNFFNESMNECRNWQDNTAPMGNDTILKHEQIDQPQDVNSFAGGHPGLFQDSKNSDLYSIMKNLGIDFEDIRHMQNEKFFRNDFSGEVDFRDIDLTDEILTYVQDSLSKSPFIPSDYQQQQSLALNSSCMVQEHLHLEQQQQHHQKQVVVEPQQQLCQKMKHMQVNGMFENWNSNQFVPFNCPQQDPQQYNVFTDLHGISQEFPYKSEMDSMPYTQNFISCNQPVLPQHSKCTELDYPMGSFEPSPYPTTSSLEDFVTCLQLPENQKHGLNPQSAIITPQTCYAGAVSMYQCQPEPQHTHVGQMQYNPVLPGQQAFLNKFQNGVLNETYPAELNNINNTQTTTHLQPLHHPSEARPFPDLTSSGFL
Particulars: cited from earlier work.

The test system of series [6] is CD4+ CD62L+CD45RO- T cells. Kind of series: In vitro differentiation of human naive CD4+ T cells, suppression and real time PCR. It is filed as cell-based. Particulars: 5 days activation with antibodies to CD3 and CD28; TGFb1 2.5 ng/ml or TCDD alone. How it is done:
To investigate the potential of AHR targeting for the induction of human Treg we activated purified naïve CD4^+ CD62L^+CD45RO^− T cells for healthy donors for 5 days with antibodies to CD3 and CD28 in the presence of TCDD 100 nM or TGFb1 2.5 ng/ml or both.
To study the functionality of the putative human Treg induced in the presence of TCDD we studied their suppressive activity of CD4^+ CD25^High and CD4^+CD25^Low T cells following 5 days of activation in the of TCDD or TGFb1 2.5 ng/ml or both.
To investigate the mechanism mediating the suppressive activity of the TCDD-induced Treg, we analyzed them by real time PCR for the expression of several genes that have been previously linked to the suppressive function of Treg. […] Accordingly, IL-10-specific blocking antibodies could interfere with the suppressive activity of Treg induced with TCDD, but not the of those induced with TGFb1 and TCDD (FIG. 42). Thus, TCDD-induced CD4^+CD25^High T cells are FoxP3^− regulatory cells whose suppressive activity is mediated, at least partially, via IL-10, resembling the phenotype of type 1 Treg (Roncarolo et al., Immunol Rev. 212, 28 (2006); Roncarolo and Gregori, Eur J Immunol. 38, 925 (2008)).
On the technique in general: Quantitative PCR measures a nucleic acid by following its amplification.

Regarding `Oc1ccc(C=Cc2cc(O)cc(O)c2)cc1` [resveratrol], in series [1], the “suppressive activity of Treg” value was “Decreases in the suppressive activity”. In series [2], the “induction of Treg by TGFβ1 and TCDD” value is “interfered with the induction of Treg”.
Regarding `NCCc1c[nH]c2ccccc12` [TA, tryptamine], the EAE suppression entry in series [3] (TA combined with the monoamine oxidase inhibitor Tranylcypromine) was “effectively suppresses EAE”. Moreover, the toxic effects result in series [4] is recorded as “do not display the toxic effects”. In series [5], the AHR affinity entry was “high affinity AHR ligands”.
On to `O=Cc1c2c(cc3c1=Nc1ccccc1-3)=Nc1ccccc1-2` [FICZ, 6-formylindolo[3,2-b]carbazole], for which the EAE development result in series [3] (AHR-ligand loaded nanoparticles, 45 femtomoles weekly starting at day 0) is recorded as “worsened the disease”.
On to “TGFb1: TGFβ1, positive control for Treg induction”, for which, in series [6], the “induction of suppressive (regulatory) T cells” value was “did not result in the induction of suppressive T cells”.
